According to ChEMBL document CHEMBL2007661, “Compounds: GSK PKIS; Assays: UNC Frye lab” (2012):
Where “and” joins values, the source holds several entries; their conditions need not be identical. Equal entries are not always repeated.

Tests used:
[1] = target: T1, Serine/threonine-protein kinase TBK1 (Homo sapiens) (UniProt Q9UHD2); conditions: at 1 µM
T1 sequence (whole entry): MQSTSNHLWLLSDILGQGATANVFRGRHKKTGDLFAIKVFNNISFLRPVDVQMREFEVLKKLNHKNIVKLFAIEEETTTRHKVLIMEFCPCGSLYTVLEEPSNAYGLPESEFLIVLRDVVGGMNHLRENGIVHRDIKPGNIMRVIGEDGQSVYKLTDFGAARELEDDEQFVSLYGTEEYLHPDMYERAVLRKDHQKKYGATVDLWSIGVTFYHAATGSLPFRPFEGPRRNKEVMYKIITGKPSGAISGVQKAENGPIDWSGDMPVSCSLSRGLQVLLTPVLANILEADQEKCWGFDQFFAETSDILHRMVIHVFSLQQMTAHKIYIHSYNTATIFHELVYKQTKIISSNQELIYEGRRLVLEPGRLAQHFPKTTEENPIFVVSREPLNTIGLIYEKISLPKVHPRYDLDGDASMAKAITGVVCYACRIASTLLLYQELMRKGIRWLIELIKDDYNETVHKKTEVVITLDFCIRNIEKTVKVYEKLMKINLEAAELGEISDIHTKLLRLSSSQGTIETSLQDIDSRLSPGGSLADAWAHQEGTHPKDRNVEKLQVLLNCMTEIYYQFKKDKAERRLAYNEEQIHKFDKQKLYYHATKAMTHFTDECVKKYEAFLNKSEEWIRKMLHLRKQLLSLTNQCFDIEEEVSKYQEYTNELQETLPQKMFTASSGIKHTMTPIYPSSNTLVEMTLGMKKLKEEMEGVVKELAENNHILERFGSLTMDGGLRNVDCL

[2] = target: T2, Inhibitor of nuclear factor kappa-B kinase subunit alpha (Homo sapiens) (UniProt O15111); conditions: at 1 µM
T2 sequence (whole entry): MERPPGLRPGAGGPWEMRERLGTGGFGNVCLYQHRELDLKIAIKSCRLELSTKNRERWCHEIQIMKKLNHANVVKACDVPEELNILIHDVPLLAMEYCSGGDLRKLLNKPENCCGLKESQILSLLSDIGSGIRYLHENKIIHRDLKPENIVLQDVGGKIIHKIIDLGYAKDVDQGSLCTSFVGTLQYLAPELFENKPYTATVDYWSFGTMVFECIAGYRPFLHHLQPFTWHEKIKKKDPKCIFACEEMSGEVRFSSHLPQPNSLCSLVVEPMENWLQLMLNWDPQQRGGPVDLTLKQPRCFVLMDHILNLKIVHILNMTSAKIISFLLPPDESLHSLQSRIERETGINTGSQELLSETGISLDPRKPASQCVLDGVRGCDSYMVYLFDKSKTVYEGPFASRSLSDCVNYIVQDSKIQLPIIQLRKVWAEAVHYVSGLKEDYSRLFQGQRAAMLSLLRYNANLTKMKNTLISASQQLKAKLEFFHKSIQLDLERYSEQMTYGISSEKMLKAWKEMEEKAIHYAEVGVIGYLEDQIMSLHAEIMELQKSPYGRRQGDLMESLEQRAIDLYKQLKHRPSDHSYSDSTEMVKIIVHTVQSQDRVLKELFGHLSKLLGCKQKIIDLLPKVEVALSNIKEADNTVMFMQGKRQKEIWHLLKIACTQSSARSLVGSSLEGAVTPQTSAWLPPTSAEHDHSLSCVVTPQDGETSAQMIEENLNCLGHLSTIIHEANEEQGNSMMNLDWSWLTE

[3] = target: T3, Tyrosine-protein kinase Mer (Homo sapiens) (UniProt Q12866); conditions: at 10 µM
T3 sequence (whole entry): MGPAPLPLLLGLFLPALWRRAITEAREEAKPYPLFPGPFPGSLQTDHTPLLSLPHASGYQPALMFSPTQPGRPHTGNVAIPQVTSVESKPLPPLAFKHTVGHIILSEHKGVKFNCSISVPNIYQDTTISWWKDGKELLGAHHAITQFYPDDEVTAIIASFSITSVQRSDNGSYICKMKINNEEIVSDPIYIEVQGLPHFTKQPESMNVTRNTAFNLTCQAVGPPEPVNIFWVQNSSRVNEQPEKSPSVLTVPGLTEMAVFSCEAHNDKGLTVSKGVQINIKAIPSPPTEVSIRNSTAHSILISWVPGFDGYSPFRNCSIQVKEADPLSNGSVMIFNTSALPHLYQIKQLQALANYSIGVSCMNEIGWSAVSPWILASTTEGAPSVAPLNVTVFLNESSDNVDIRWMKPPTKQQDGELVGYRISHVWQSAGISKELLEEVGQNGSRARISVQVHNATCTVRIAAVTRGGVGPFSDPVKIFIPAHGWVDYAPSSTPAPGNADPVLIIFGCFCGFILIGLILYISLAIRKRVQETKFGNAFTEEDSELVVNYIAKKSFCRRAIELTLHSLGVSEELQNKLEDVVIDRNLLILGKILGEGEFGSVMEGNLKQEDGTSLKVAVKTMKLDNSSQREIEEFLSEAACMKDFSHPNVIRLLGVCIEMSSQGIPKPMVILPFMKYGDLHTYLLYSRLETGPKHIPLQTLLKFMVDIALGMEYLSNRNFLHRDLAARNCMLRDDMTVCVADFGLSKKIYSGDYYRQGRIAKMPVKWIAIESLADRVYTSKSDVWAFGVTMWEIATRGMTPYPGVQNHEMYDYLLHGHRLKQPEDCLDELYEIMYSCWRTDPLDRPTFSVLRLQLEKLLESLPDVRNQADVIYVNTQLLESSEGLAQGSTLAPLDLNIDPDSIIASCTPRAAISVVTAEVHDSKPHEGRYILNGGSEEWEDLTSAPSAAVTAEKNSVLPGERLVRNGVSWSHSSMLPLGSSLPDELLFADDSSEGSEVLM

| SMILES | inhibition [1] | inhibition [2] | inhibition [3] |
| --- | --- | --- | --- |
| COc1cc2ncn(-c3cc(O[C@H](C)c4ccccc4Cl)c(C(N)=O)s3)c2cc1OC | 2% and 0% | -2% and 4% | -8% |
| CCOc1nccc2c1nc(-c1nonc1N)n2CC | -2% and 0% | 15% and 18% | -3% |
| COc1cc(N2CCN(C(C)C)CC2)ccc1Nc1nc(Nc2cccc(F)c2C(=O)O)c2cc[nH]c2n1 | -3% and 0% | 2% and 3% | -2% |
| N#Cc1ccc(Oc2nccc(-c3c(-c4ccc(F)cc4)ncn3C3CCNCC3)n2)cc1 | 8% and 3% | -2% and -1% | -1% |
| CCn1c(-c2nonc2N)nc2c(C#CC(C)(C)O)nc(O[C@@H](CN)c3ccccc3)cc21 | 85% and 87% | 17% and 19% | -9% |
| Cc1nnc(-c2ccc(C)c(-c3ccc(C(=O)NCc4ccc(Cl)cc4)cc3)c2)o1 | 3% and 4% | 2% and 4% | 92% |
| CNC(=O)c1cncc(/C=C/c2c(C)cccc2C)c1 | 3% and -1% | -6% and -4% | -3% |
| Cc1ccc(NC(=O)c2ccoc2)cc1-c1ccc(C(=O)NCC2CC2)cc1 | 1% and 2% | 5% and 4% | -4% |
| Fc1ccc(-c2ncn(C3CCNCC3)c2-c2ccnc(Oc3ccc(F)c(F)c3)n2)cc1 | 2% and 0% | 18% and 0% | 67% |
| CN1CCN(CCCNc2nc3ccc(Oc4ccc(NC(=O)Nc5cc(C(F)(F)F)ccc5F)cc4)cc3[nH]2)CC1 | 0% | 4% | -1% |
| CCN(CC)Cc1ccc(Nc2nccc(-c3cnn4ncccc34)n2)cc1 | 10% and 14% | -1% and -2% | 5% |
| CS(=O)(=O)Nc1ccc(-c2ccc3c(NC(=O)C4CC4)n[nH]c3c2)cc1 | 3% and 5% | 5% and 3% | 1% |
| Cc1ccc(C(=O)NC2CC2)cc1-c1ccc2[nH]ncc2c1 | 0% and 2% | 0% | 6% |
| COc1cc2ncn(-c3cc(OCc4cccs4)c(C(N)=O)s3)c2cc1OC | 35% and 33% | 5% and 3% | 4% |
| N#Cc1c(NC(=O)c2ccccc2F)sc2c1CCCC2 | 0% and 2% | -3% | -6% |
| CCn1c(-c2nonc2N)nc2c(C#CC(C)(C)O)nc(CN3CCCC3)cc21 | 24% and 20% | -7% and 2% | -6% |
| Cc1ccc(NC(=O)c2ccnc(N3CCCC3)c2)cc1-c1ccc(C(=O)NCC2CC2)cc1 | 33% and 39% | -8% | -1% |
| CCn1c(-c2nonc2N)nc2c(C#CC(C)(C)O)nc(OC[C@H](N)c3ccccc3)cc21 | 8% and 11% | 10% and 11% | -2% |
| CCCNc1cccc(-n2ncc3c(N/N=C/c4ccncc4)ncnc32)c1 | 18% | 4% | 1% |
| O=C1Nc2ccccc2/C1=C1\CCc2cc(O)ccc21 | 25% and 30% | 1% and 0% | 7% |

Results, then the compound that gave them:

| inhibition [1] | inhibition [2] | inhibition [3] | SMILES |
| --- | --- | --- | --- |
| 65% and 61% | -2% | 51% | COc1cc2ncn(-c3cc(OCCc4ccccc4)c(C(N)=O)s3)c2cc1OC |
| 2% and -3% | 1% and 2% | 10% | CN(C)c1cc2c(Nc3ccc4c(cnn4Cc4ccccc4)c3)ncnc2cn1 |
| 28% and 31% | 7% and 19% | 49% | COc1cccc(-n2ncc3c(N/N=C/c4ccc(C(=O)NCCN(C)C)cc4)ncnc32)c1 |
| 10% and 5% | -1% and 3% | 3% | COc1ccccc1Nc1ncc(-c2ccccc2)o1 |
| 2% and 0% | 4% and 3% | 1% | COc1cccc(COc2cc(-n3cnc4ccccc43)sc2C(N)=O)c1 |
| 0% and 3% | 4% and 5% | 2% | CCNC(=O)O[C@H]1CN[C@H](C#Cc2cc3ncnc(Nc4ccc(OCc5cccc(F)c5)c(Cl)c4)c3s2)C1 |
| 11% and 14% | 2% and 1% | -2% | C/C(Nc1ccc(S(N)(=O)=O)cc1)=C1/C(=O)Nc2ccccc21 |
| 61% and 57% | -3% | 16% | NS(=O)(=O)c1ccc(N/N=C2\C(=O)Nc3ccc(-c4cnco4)cc32)cc1 |
| -4% and -3% | 6% | -3% | Fc1ccc(-c2cc(-c3c[nH]nc3-c3ccccn3)ccn2)cc1 |
| -2% and -5% | 3% and 1% | -7% | Cc1cc(-c2ccccn2)cc(C)c1/C=C/c1cncc(-c2nn[nH]n2)c1 |
| -1% | 2% and -8% | 84% | CS(=O)(=O)CCNCc1coc(-c2ccc3ncnc(Nc4ccc(OCc5ccccc5)cc4)c3c2)c1 |
| 0% | 16% and 15% | -5% | CS(=O)(=O)CCNCc1cc(-c2cc3c(Nc4ccc(OCc5cccc(F)c5)c(Cl)c4)ncnc3s2)cs1 |
| 5% and 6% | 0% | 1% | CN(C)CCOc1ccc(-c2cc(-c3ccc4c(c3)CCC4=NO)c(-c3ccncc3)o2)cc1 |
| -6% and -7% | 1% | -7% | CC(=O)NCc1cccc(C#Cc2cncnc2Nc2ccc(OCc3cccc(F)c3)c(Cl)c2)c1 |
| -6% and -3% | -2% and 3% | 13% | COc1ccc(-c2nn3ncccc3c2-c2ccnc(Nc3ccc(Cl)c(C(F)(F)F)c3)n2)cc1 |
| 4% and 1% | -3% and -4% | -1% | C[C@@H](Oc1cc(-n2cnc3ccc(OC[C@@H](O)CO)cc32)sc1C(N)=O)c1ccccc1Cl |
| 27% | 2% | 93% | Cc1ccc(Nc2ccnc(Nc3cccc(C(N)=O)c3)n2)cc1O |
| 1% and 2% | 2% and 3% | 5% | COc1ccc(-c2cc3c(N)ncnc3o2)cc1 |
| -7% and -1% | 2% | 74% | NS(=O)(=O)c1cccc(-c2cc3ccncc3cc2OCc2ccccc2)c1 |
